PMC5578959, “Selective LRRK2 kinase inhibition reduces phosphorylation of endogenous Rab10 and Rab12 in human peripheral mononuclear blood cells” (Scientific Reports, 2017)

Columns and labels:
Experiment in all cases: KiNativ profiling in human PBMCs
Format in all cases: binding
[1] = system: T1, MLKL; conditions: Lys1
T1 construct: purchased ActivX Technologies (KiNativ)
Procedure, shortened: (§1)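 Compound concentrations: 1 µM and 0.1 µM, applied to intact human PBMCs; engagement of kinases determined with the KiNativ approach.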

[2] = system: T2, OSR1; conditions: Lys2
T2 construct: purchased ActivX Technologies (KiNativ)
Procedure, shortened: as §1

[3] = system: T3, ZAP70
T3 construct: purchased ActivX Technologies (KiNativ)
Procedure, shortened: as §1

[4] = system: T4, STLK3; conditions: Lys2
T4 construct: purchased ActivX Technologies (KiNativ)
Procedure, shortened: as §1

[5] = system: T5, JAK1 domain2
T5 construct: JAK1 domain2; purchased ActivX Technologies (KiNativ)
Procedure, shortened: as §1

[6] = system: T6, DNAPK; conditions: ATP
T6 construct: purchased ActivX Technologies (KiNativ)
Procedure, shortened: as §1

[7] = system: T7, TAK1; conditions: Lys2
T7 construct: purchased ActivX Technologies (KiNativ)
Procedure, shortened: as §1

[8] = system: T8, MARK2; conditions: Lys1
T8 construct: purchased ActivX Technologies (KiNativ)
Procedure, shortened: as §1

[9] = system: T9, CaMK4
T9 construct: purchased ActivX Technologies (KiNativ)
Procedure, shortened: as §1

[10] = system: T10, STLK6
T10 construct: purchased ActivX Technologies (KiNativ)
Procedure, shortened: as §1

[11] = system: T11, MARK3; conditions: Lys1
T11 construct: purchased ActivX Technologies (KiNativ)
Procedure, shortened: as §1

[12] = system: T12, LKB1; conditions: Lys2
T12 construct: purchased ActivX Technologies (KiNativ)
Procedure, shortened: as §1

[13] = system: T13, MAP2K4
T13 construct: purchased ActivX Technologies (KiNativ)
Procedure, shortened: as §1

[14] = system: MAP2K1,MAP2K2; conditions: Lys2
Procedure, shortened: as §1

[15] = system: TAO1,TAO3; conditions: Lys2
Procedure, shortened: as §1

[16] = system: AKT2,AKT3; conditions: ATP Loop
Procedure, shortened: as §1

[17] = system: T14, KHS1; conditions: Lys1
T14 construct: purchased ActivX Technologies (KiNativ)
Procedure, shortened: as §1

[18] = system: T15, PIK3CD; conditions: ATP
T15 construct: purchased ActivX Technologies (KiNativ)
Procedure, shortened: as §1

[19] = system: T16, MSK2 domain1; conditions: Lys2
T16 construct: MSK2 domain1; purchased ActivX Technologies (KiNativ)
Procedure, shortened: as §1

[20] = system: T17, DGKA; conditions: ATP
T17 construct: purchased ActivX Technologies (KiNativ)
Procedure, shortened: as §1

[21] = system: T18, Erk1; conditions: Lys2
T18 construct: purchased ActivX Technologies (KiNativ)
Procedure, shortened: as §1

[22] = system: T19, MAP2K7; conditions: Lys2
T19 construct: purchased ActivX Technologies (KiNativ)
Procedure, shortened: as §1

[23] = system: T20, JAK1 domain1; conditions: Protein Kinase Domain
T20 construct: JAK1 domain1; purchased ActivX Technologies (KiNativ)
Procedure, shortened: as §1

[24] = system: T21, ACK; conditions: Lys1
T21 construct: purchased ActivX Technologies (KiNativ)
Procedure, shortened: as §1

[25] = system: KSR1,KSR2; conditions: Activation Loop
Procedure, shortened: as §1

[26] = system: T22, SNRK
T22 construct: purchased ActivX Technologies (KiNativ)
Procedure, shortened: as §1

[27] = system: T23, ARAF; conditions: Lys2
T23 construct: purchased ActivX Technologies (KiNativ)
Procedure, shortened: as §1

[28] = system: T24, PIP4K2C; conditions: ATP
T24 construct: purchased ActivX Technologies (KiNativ)
Procedure, shortened: as §1

[29] = system: T25, SGK3
T25 construct: purchased ActivX Technologies (KiNativ)
Procedure, shortened: as §1

[30] = system: T26, ULK3
T26 construct: purchased ActivX Technologies (KiNativ)
Procedure, shortened: as §1

[31] = system: T27, TLK2
T27 construct: purchased ActivX Technologies (KiNativ)
Procedure, shortened: as §1

[32] = system: T28, SYK
T28 construct: purchased ActivX Technologies (KiNativ)
Procedure, shortened: as §1

[33] = system: JNK1,JNK2,JNK3; conditions: Lys2
Procedure, shortened: as §1

[34] = system: T29, NEK7; conditions: Lys1
T29 construct: purchased ActivX Technologies (KiNativ)
Procedure, shortened: as §1

[35] = system: T30, CaMK1a
T30 construct: purchased ActivX Technologies (KiNativ)
Procedure, shortened: as §1

## Cn1cc(-c2c[nH]c3ncnc(N4CCOCC4)c23)cc1C#N [PFE-360]
[1]; 0.1µM
  % Inhibition: 2.3%
[1]; 1µM
  % Inhibition: 5.2%
[2]; 0.1µM
  % Inhibition: -20.9%
[2]; 1µM
  % Inhibition: -5.1%
[3]; 0.1µM, Activation Loop
  % Inhibition: -0.7%
[3]; 0.1µM, Lys1
  % Inhibition: 0.4%
[3]; 1µM, Activation Loop
  % Inhibition: -9.8%
[3]; 1µM, Lys1
  % Inhibition: -5.9%
[4]; 0.1µM
  % Inhibition: -1.9%
[4]; 1µM
  % Inhibition: -6.2%
[5]; 0.1µM, Activation Loop
  % Inhibition: -1.9%
[5]; 0.1µM, Lys1
  % Inhibition: 0%
[5]; 1µM, Activation Loop
  % Inhibition: -10.1%
[5]; 1µM, Lys1
  % Inhibition: -13.8%
[6]; 0.1µM, peptide EHPFLVKGGEDLR
  % Inhibition: 0.3%
[6]; 0.1µM, peptide KGGSWIQEINVAEK
  % Inhibition: -1.9%
[6]; 1µM, peptide EHPFLVKGGEDLR
  % Inhibition: -12.5%
[6]; 1µM, peptide KGGSWIQEINVAEK
  % Inhibition: -4.9%
[7]; 0.1µM
  % Inhibition: -3.5%
[7]; 1µM
  % Inhibition: -20%
[8]; 0.1µM
  % Inhibition: -8.9%
[8]; 1µM
  % Inhibition: 2.3%
[9]; 0.1µM, Lys1
  % Inhibition: -10.2%
[9]; 0.1µM, Lys2
  % Inhibition: 15%
[9]; 1µM, Lys1
  % Inhibition: -8.5%
[9]; 1µM, Lys2
  % Inhibition: 9.5%
[10]; 0.1µM, Lys1
  % Inhibition: -3.3%
[10]; 0.1µM, Lys2
  % Inhibition: 11.8%
[10]; 1µM, Lys1
  % Inhibition: -20.6%
[10]; 1µM, Lys2
  % Inhibition: -10.2%
[11]; 0.1µM
  % Inhibition: 4.8%
[11]; 1µM
  % Inhibition: 4.7%
[12]; 0.1µM
  % Inhibition: 6.5%
[12]; 1µM
  % Inhibition: 0.4%
[13]; 0.1µM, Lys1
  % Inhibition: -7.3%
[13]; 0.1µM, Lys2
  % Inhibition: 7.4%
[13]; 1µM, Lys1
  % Inhibition: 11%
[13]; 1µM, Lys2
  % Inhibition: -3.8%
[14]; 0.1µM
  % Inhibition: 13.4%
[14]; 1µM
  % Inhibition: 12.9%
[15]; 0.1µM
  % Inhibition: -0.2%
[15]; 1µM
  % Inhibition: -14.3%
[16]; 0.1µM
  % Inhibition: -2.2%
[16]; 1µM
  % Inhibition: -5.2%
[17]; 0.1µM
  % Inhibition: 1.1%
[17]; 1µM
  % Inhibition: -9.3%
[18]; 0.1µM, peptide TKVNWLAHNVSKDNRQ
  % Inhibition: -9.3%
[18]; 0.1µM, peptide VNWLAHNVSKDNRQ
  % Inhibition: 0.5%
[18]; 1µM, peptide TKVNWLAHNVSKDNRQ
  % Inhibition: -11.6%
[18]; 1µM, peptide VNWLAHNVSKDNRQ
  % Inhibition: 1.4%
[19]; 0.1µM
  % Inhibition: 2.2%
[19]; 1µM
  % Inhibition: 1.9%
[20]; 0.1µM
  % Inhibition: 1.4%
[20]; 1µM
  % Inhibition: -4.5%
[21]; 0.1µM
  % Inhibition: 7.7%
[21]; 1µM
  % Inhibition: 3.7%
[22]; 0.1µM
  % Inhibition: 7.5%
[22]; 1µM
  % Inhibition: -1.1%
[23]; 0.1µM
  % Inhibition: 16.2%
[23]; 1µM
  % Inhibition: 8.2%
[24]; 0.1µM
  % Inhibition: -5.6%
[24]; 1µM
  % Inhibition: -0.5%
[25]; 0.1µM
  % Inhibition: 19.7%
[25]; 1µM
  % Inhibition: 10.8%
[26]; 0.1µM, Lys1
  % Inhibition: 17.1%
[26]; 0.1µM, Lys2
  % Inhibition: -21.9%
[26]; 1µM, Lys1
  % Inhibition: -2%
[26]; 1µM, Lys2
  % Inhibition: -18.7%
[27]; 0.1µM
  % Inhibition: 7.6%
[27]; 1µM
  % Inhibition: 2.5%
[28]; 0.1µM, peptide TLVIKEVSSEDIADMHSNLSNYHQYIVK
  % Inhibition: -22.2%
[28]; 0.1µM, peptide VKELPTLKDMDFLNK
  % Inhibition: -16.7%
[28]; 1µM, peptide TLVIKEVSSEDIADMHSNLSNYHQYIVK
  % Inhibition: -14.4%
[28]; 1µM, peptide VKELPTLKDMDFLNK
  % Inhibition: -2.6%
[29]; 0.1µM, Lys1
  % Inhibition: 8.9%
[29]; 0.1µM, Lys2
  % Inhibition: -21.8%
[29]; 1µM, Lys1
  % Inhibition: 5.1%
[29]; 1µM, Lys2
  % Inhibition: -10.5%
[30]; 0.1µM, Lys1
  % Inhibition: 1%
[30]; 0.1µM, Lys2
  % Inhibition: -2.5%
[30]; 1µM, Lys1
  % Inhibition: -3%
[30]; 1µM, Lys2
  % Inhibition: 0.6%
[31]; 0.1µM, Lys1
  % Inhibition: -8.8%
[31]; 0.1µM, Lys2
  % Inhibition: -5.5%
[31]; 1µM, Lys1
  % Inhibition: -9.2%
[31]; 1µM, Lys2
  % Inhibition: -10.6%
[32]; 0.1µM, Activation Loop
  % Inhibition: 1.9%
[32]; 0.1µM, Lys1
  % Inhibition: 0.1%
[32]; 1µM, Activation Loop
  % Inhibition: -4.4%
[32]; 1µM, Lys1
  % Inhibition: -13%
[33]; 0.1µM
  % Inhibition: 2.1%
[33]; 1µM
  % Inhibition: -12%
[34]; 0.1µM
  % Inhibition: 2.8%
[34]; 1µM
  % Inhibition: 11.7%
[35]; 0.1µM, Lys1
  % Inhibition: -2.5%
[35]; 0.1µM, Lys2
  % Inhibition: -12.3%
[35]; 1µM, Lys1
  % Inhibition: 3.5%
[35]; 1µM, Lys2
  % Inhibition: -25%
